In patent publication US7829576B2 (priority 2008, dated 2010):
“Also recorded” adds a separate entry of the source.

Columns and labels:
[1] = tested on: noradrenaline reuptake; details: synaptosomes from rat and primate brain; cited from earlier work
[2] = tested on: animal models of depression; details: preclinical models of depression; cited from earlier work
[3] = tested on: human volunteers; details: 25-400 mg, cited from earlier work
[4] = tested on: L5 SNL rats; assay: L5 SNL model of neuropathic pain, tactile allodynia (von Frey); format: in vivo, rat
Protocol: Protocol. […] Neurosci. Methods 144:175-181. The test animals were placed in a Plexiglas chamber (10 cm×20 cm×25 cm) and habituated for 15 minutes. The chamber was positioned on top of a mesh screen so that von Frey monofilaments could be presented to the plantar surface of both hindpaws. Measurement of tactile sensitivity for each hind paw were obtained using the up/down method (Dixon, 1980, Annu Rev. Pharmacol. […] Each trial started with a von Frey force of 2 grams delivered to the right hind paw for approximately 1-2 seconds and then the left hind paw. If there was no withdrawal response, the next higher force was delivered. If there was a response, the next lower force was delivered. This procedure was performed until no response was made at the highest force (15 grams) or until four stimuli were administered following the initial response. The 50% paw withdrawal threshold for each paw was calculated using the following formula: […] Testing for tactile sensitivity was performed twice and the mean 50% withdrawal value assigned as the tactile sensitivity for the right and left paws for each animal. All test groups contained at least six animals. Protocol. […] In the experiment, animals were tested for tactile allodynia at 30 min post treatment. The sham-operated control group, which were operated on but not subject to nerve ligation, contained 4 animals. The treatment group contained at least six animals. Protocol. […] All test groups contained at least six animals. Protocol. […] The data obtained are depicted in FIG. 11.

[5] = target: T1, 5HT2C receptor (Homo sapiens, UniProt P28335); details: published report; cited from earlier work
T1 sequence (P28335 33-458): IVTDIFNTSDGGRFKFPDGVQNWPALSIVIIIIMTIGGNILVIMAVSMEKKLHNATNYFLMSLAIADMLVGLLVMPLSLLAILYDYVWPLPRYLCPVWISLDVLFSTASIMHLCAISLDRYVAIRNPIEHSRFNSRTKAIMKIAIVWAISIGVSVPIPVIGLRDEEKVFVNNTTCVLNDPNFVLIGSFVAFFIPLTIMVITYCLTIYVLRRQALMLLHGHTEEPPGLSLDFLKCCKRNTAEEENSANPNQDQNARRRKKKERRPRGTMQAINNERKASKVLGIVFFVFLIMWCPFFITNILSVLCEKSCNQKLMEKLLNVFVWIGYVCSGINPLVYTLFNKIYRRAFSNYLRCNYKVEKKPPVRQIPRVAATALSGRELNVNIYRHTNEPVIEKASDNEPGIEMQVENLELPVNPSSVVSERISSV

[6] = single dose, 10 to 500 mg; cited from earlier work
[7] = tested on: male ICR mice; assay: Acetic acid-induced writhing (visceral pain); format: in vivo, mouse
Protocol: Protocol. […] Five minutes after treatment with acetic acid, the number of writhes was counted for 10 min. A writhe is defined as the extension of both front and hind limbs with a concave stretch of the abdomen. The mean number of writhes was determined for each treatment group and the percent inhibition of the vehicle response was calculated using the following formula: […]

[8] = tested on: Male Sprague-Dawley rats; assay: Rat hot plate model of acute nociceptive pain; format: in vivo; details: 30 and 60 mg/kg IP, 50° C. hot plate (FIGS. 6A, 6B)
Protocol: Protocol. […] For the experiment, rats were acclimated to a 50° C. hot plate apparatus by gently placing them on the hot plate with all four paws on the surface. A timer was started and the latency (in seconds) until the rat licked any of its paws was measured. A 60 second cut-off to elicit a response was set to prevent tissue damage to the paws. After the rats elicited the paw lick response, they were removed from the apparatus and returned to their home cages for at least 30 minutes. Baseline paw lick latencies were determined prior to drug treatments in an identical manner to the acclimation test. Following drug treatments, the rats were placed on the hot plate apparatus at the appropriate time and treatment paw lick latencies were determined. All test groups contained at least six animals.

[9] = tested on: FCA-treated rats; assay: FCA-induced mechanical hyperalgesia (inflammatory pain); format: in vivo, rat
Protocol: Protocol. […] For the assay, the methods of DeHaven-Hudkins et al., 1999, J. Pharmacol. Exp. Ther. 289:494-502 were used to determine mechanical hyperalgesia in rats 24 hours after intraplantar administration of 150 μL Freund's Complete Adjuvant (FCA). To determine paw pressure thresholds, the rats were lightly restrained in a gauze wrap and pressure was applied to the dorsal surface of the inflamed and uninflamed paw with a conical piston using a pressure analgesia apparatus (Stoelting Instruments, Wood Dale, Ill.). […] Paw pressure thresholds were determined before and at specified times after drug treatment. All test groups contained at least six animals. Protocol. A sample of (±)-beloxepin was prepared by milling the isolated (+)-beloxepin and (−)-beloxepin enantiomers together, bringing them up in solvent, and then removing the solvent (“Lot 9”). In this experiment, 30 mg/kg of (±)-beloxepin (“Lot 7”) or 30 mg/kg of the reconstituted racemic mixture (Lot 9) was administered in rats treated with FCA for 24 hours. Thirty minutes after treatment with vehicle, (±)-beloxepin, or reconstituted racemic mixture, paw pressure thresholds were determined. Thirty minutes is the time of peak mechanical antihyperalgesia of (±)-beloxepin.

For `Cc1cccc2c1Oc1ccccc1C1(O)CCN(C)CC21` (racemic) [beloxepin, cis-1,2,3,4,4a,13b-hexahydro-2,10-dimethyldiben-[2,3:6,7]oxepino[4,5c]pyridine-4a-ol]], the “affinity for other monoamine carriers (serotonin and dopamine transporters) less than for noradrenaline reuptake” value [1] is given as “greater than 100 fold”, the “sedation, motor impairment, side effects in animal tests” value [2] is given as “did not cause sedation, motor impairment or other untoward side effects” and the “total duration of nocturnal REM sleep” value ([3]; EEG) is given as “decreased total duration of nocturnal REM sleep”. The REM latency ([3]; acutely and sub-chronically, EEG) was “dose-dependently prolonged REM latency”, the “sedation or other side effects in sleep studies” value ([3]; human volunteers) was “No sedation or other side effects were observed” and the “side effects following treatment” value ([4]; 30 mg/kg IP, L5 SNL rats) was “No side effects were observed”. For the same compound, the “antiallodynic efficacy compared with duloxetine” value ([4]; each 30 mg/kg IP (FIG. 11)) was “comparable in efficacy to duloxetine”, the “peak antiallodynic effect compared with esreboxetine” value ([4]; each 30 mg/kg IP (FIG. 11)) was “greater than that measured in rats treated with esreboxetine” and the “affinity for the 5HT2C receptor” value [5] was “modest affinity”. The t1/2 [6] was 11 to 15 h, the tmax [6] was “one to four” and the ED50 ([7]; Mus musculus, oral, 25 min prior to 0.6% acetic acid IP (FIG. 8), read-out: ED50 inhibition of acetic acid-induced writhing) was 13.3 mg/kg. The “inhibition of acetic acid-induced writhing, dose dependence” value ([7]; oral (FIG. 8)) was “dose-dependent fashion”, the “anti-nociceptive activity (paw lick latency)” value [8] was “nearly as effective as 3 mg/kg morphine; also recorded: almost equivalent to that of 3 mg/kg morphine” and the “reversal of FCA-induced hyperalgesia” value ([9]; 30 mg/kg (FIG. 7)) was “nearly completely reversed hyperalgesia; also recorded: nearly complete reversal of hyperalgesia”. The mechanical antihyperalgesic efficacy ([9]; 30 mg/kg IP, 24 hours after FCA, 30 min after treatment (FIG. 9)) was 96±16%.
